Source: patent US20180049996A1, “THERAPEUTIC AGENT FOR CHRONIC RESPIRATORY DISEASE AND COMPOSITION FOR INHIBITING CARDIAC FIBROSIS” (NIPPON HYPOX LABORATORIES INCORPORATED, priority 2015, published 2018)

Test system: sputum excretion
Assay: Sputum excretion action (phenol red excretion from trachea sections, method of Engler et al.)
Format: in vivo, male ICR mice
Conditions: ambroxol 250 mg/kg oral single dose; relative to negative control; significant increase
Protocol: The hydroquinone derivative of the present invention was orally administered to 8 week old male ICR mice in a single dose, and the sputum excretion action was evaluated according to the method of Engler et al. (Engler H, Szelenyi I, J.Pharmacol. Moth. 11, 151-157, 1984).
Specifically, the test was conducted as follows. The test material was orally administered to the mice in the control group and the test groups, i.e., an aqueous solution of 2% gum arabic was administered to the mice in the negative control group, and 2,3,5-trimethylhydroquinone-1-hexyl ether (HTHQ), the test substance, was orally administered to the mice in the HTHQ-administered groups at 100 mg/kg body weight, 200 mg/kg body weight and 400 mg/kg body weight, respectively. Ambroxol (a product from Sigma-Aldrich) was orally administered to the mice in the ambroxol administered group at 250 mg/kg body weight. Here, ambroxol is a substance having expectoration action and has been selected as a positive control substance. 30 minutes after the oral administration of the test material, saline in which phenol red (a product from Sigma-Aldrich) was dissolved at a concentration of 0.05 g/mL was intraperitoneally administered at 15 mL/kg. Then, 30 minutes after the administration of phenol red, the mice were euthanized by inhalation of carbon dioxide, and the tracheae were extirpated. Given sites of the extirpated tracheae were cut into sections of fixed size to obtain trachea sections. The obtained trachea sections were added to centrifugation tubes, and 1 mL of saline was added there, and the mixture was sonicated using a ultrasonic washing machine for 15 minutes. After the centrifugation of 5 minutes at 10000 rpm, 0.5 mL of a upper layer solution was dispensed to the centrifugation tubes and 0.05 mL of 1 N sodium hydroxide was added to the tubes. After stirring with a vortex mixer, 0.2 mL of a sample was dispensed to a 96 well plate, and absorbance was measured at 546 nm using a micro plate reader (a product from BioTek Instruments, Inc). The amounts of phenol red excreted from the trachea sections of the mice in the control group and test groups were calculated by extrapolating the measured absorbance to the standard curve based on the absorbance of phenol red reference standard ([…], 2.3 and 1.2 ng/mL). The amounts of phenol red excreted from the trachea sections were substituted in the following formula to calculate the sputum excretion ability of the test material. The formula to calculate the sputum excretion ability is as follows: “sputum excretion ability(%)={(A/B)−1}×100” wherein A is the amounts of phenol red of the test material administered groups (an average) and B is the amount of phenol red of the negative control group (an average).

SMILES: Nc1c(Br)cc(Br)cc1CN[C@H]1CC[C@H](O)CC1 [ambroxol, Ambroxol, reference compound]
- sputum excretion ability: 41.1%
